Laboratory results: US20260209270A1, “Synthetic Peptide And Construct” (TOAGOSEI CO., LTD., priority 2022, published 2026)
FAM = 5(6)-carboxyfluorescein

System: NSC-34 cells
Assay: Evaluation of cell membrane permeability by flow cytometry (MFI of FAM fluorescence)
Assay type: cell-based, mouse
Details: for MFI: NSC-34 cells; for value of MFI compared with Reference Example 1 (FAM alone): 20 μM
Protocol: As a culture medium of the NSC-34 cell, 10% fetal bovine serum (FBS)-containing Dulbecco's modified Eagle's medium (DMEM (Cat No. 044-29765, manufactured by FUJIFILM Wako Pure Chemical Corporation)) was used. The samples 1 to 6 were each dissolved in dimethyl sulfoxide (DMSO) to prepare sample solutions 1 to 6 with a sample concentration of 4 mM. Then, the sample solutions were diluted in the culture medium to prepare 40 μM sample solutions 1 to 6.
The NSC-34 cell was suspended in the culture medium to prepare a cell suspension of 2×10^5 cells/mL. The cell suspension was added by 1 mL to a well of a commercially available six-hole (well) plate (manufactured by AGC TECHNO GLASS Co., Ltd.) so as to seed the NSC-34 cell to be 2× 10^5 cells/well. […] After that, the six-well plate was left at rest in a cell culture apparatus, and incubated for 20 hours at 37° C. under a 5% CO2 condition.
After the 20-hour incubation, the culture supernatant was removed from the well and the cells in the well were cleaned twice with 1 mL of PBS. Next, 100 μL of the 0.25% trypsin/EDTA solution was added to the well and the incubation was performed for three minutes at 37° C. After the incubation, 900 μL of the culture medium was added to the well to deactivate the trypsin. Subsequently, the cell suspension in the well was transferred to a tube and the cells were collected. This tube was subjected to five-minute centrifugal separation at 4° C. under a condition of 210×g. After the centrifugal separation, the supernatant was removed and the precipitate (cell pellet) was suspended (cleaned) with 1 mL of PBS, which was followed by the centrifugal separation under the same condition as that described above. After this operation was repeated twice, the supernatant was removed and thus, the cells (cell pellet) cultured in the culture medium containing the sample 1 were obtained.
Regarding the obtained cells (cell pellet), the cell membrane permeability of the sample 1 was analyzed using a flow cytometer. As the flow cytometer, On-Chip Flowcytometer (manufactured by On-Chip Biotechnologies Co., LTD.) was used.
For such an analysis, the obtained cell pellet was suspended with 100 μL of on-chip T buffer to prepare a cell suspension for analysis.
Using the aforementioned flow cytometer, gating based on forward scatter (FSC) and side scatter (SSC) was performed to set a gate about a cell group to be analyzed, and the fluorescence intensity was measured about the cell group in this gate. Note that the number of cells of the cell group was set to at least 10000 or more in the analysis. The fluorescence intensity was measured using a fluorescence detector FL2 of the flow cytometer (optimum detection wavelength around 543 nm) capable of detecting the fluorescence wavelength of FAM. Regarding this measurement result, the analysis was performed using commercially available analysis software “FlowJo” (manufactured by TreeStar) to obtain mean fluorescence intensity (MFI) of the cell group to be measured. […]

[1] = Test 1, sample/FAM concentration 20 μM in culture medium, 20 hours incubation at 37° C., detector FL2
[2] = Test 2, sample/FAM concentration 25 μM in culture medium, otherwise similar to Test 1

Substance | MFI [1] | MFI [2] | value of MFI compared with Reference Example 1 (FAM alone) (Test 1)
5(6)-carboxyfluorescein [Reference Example 1, reference compound] | 10.9 | 13.1 | 
Ac-PD-FAM [Example 5] | 7.8 |  | lower
Ac-PDPD-FAM [Example 1] | 15 |  | 
Ac-PDPDPDPDPDPDG-FAM (Ac-PDPDPDPDPDPDG-{FAM}) [Example 7, construct: N-terminally acetylated peptide 7 bonded to FAM] |  | 27.5 | 
Ac-PDPEG-FAM [Example 3] | 18.9 |  | 
Ac-PDPEPDPEPDPEG-FAM (Ac-PDPEPDPEPDPEG-{FAM}) [Example 9, construct: N-terminally acetylated peptide 9 bonded to FAM] |  | 25.1 | 
Ac-PE-FAM [Example 6] | 7.4 |  | lower
Ac-PEPDG-FAM [Example 4] | 19.9 |  | 
Ac-PEPE-FAM [Example 2] | 16.2 |  | 
Ac-PEPEPEPEPEPEG-FAM (Ac-PEPEPEPEPEPEG-{FAM}) [Example 8, construct: N-terminally acetylated peptide 8 bonded to FAM] |  | 29.3 | 
